# Results: patent US8618110B2, “Compositions and methods for apoptosis modulators” (VM Discovery Inc., priority 2007, dated 2013)
# Tests used:
# [1] = test system: SF268 (glioblastoma) tumor cell line; assay: MTT proliferation assay, SF268; format: cell-based; conditions: Homo sapiens, SF-268, 120 h, 5 days
# Description: (§1) Human tumor cell lines were obtained from the American Type Culture Collection, the National Cancer Institute or from the originator as a kind gift. All cells were grown in RPMI 1640 (Invitrogen) medium containing 10% fetal bovine serum and 2 mM L-glutamine.
# (§2) Logarithmically growing cells cultured in T75 flasks (Falcon) were harvested and inoculated into 96 well microtiter plates in 100 μL at plating densities ranging from 2,000 to 5,000 cells/well depending on the doubling time of individual cell lines. After cell inoculation, the microtiter plates are incubated at 37° C., 5% CO2, 95% air and 100% relative humidity for 24 h prior to addition of drug.
# (§3) After 24 h, one plate of each cell line is developed with MTT (3-4,5-Dimethylthiazol-2-yl)-2,5-diphenyltetrazolium bromide, yellow), which is reduced to purple formazan in the mitochondria of living cells. […] The absorbance of this colored solution can be quantified by measuring at a certain wavelength (usually between 500 and 600 nm) by a spectrophotometer. […] The d0 growth value for each cell line is later deducted from each of the readouts at termination of the experiment. Essentially the final readouts are normalized for baseline growth, which enables us direct deduction of growth inhibition parameters from the graphed data. […]
# (§4) Two independent experiments were conducted and the IC50 concentrations calculated plus/minus standard deviation.
# human tumor cell lines = assay: MTT proliferation assay, human tumor cell lines; format: cell-based; conditions: H23, H460, DU-145; IC50 comparison
# Description: as §1, §2, §3, §4
# [2] = test system: H23 (lung) tumor cell line; assay: MTT proliferation assay, H23; format: cell-based, human; conditions: FIG. 1A
# Description: as §1, §2, §3, §4
# [3] = test system: H460 (lung) tumor cell line; assay: MTT proliferation assay, H460; format: cell-based, human; conditions: FIG. 1B
# Description: as §1, §2, §3, §4
# [4] = test system: DU-145 (prostate) tumor cell line; assay: MTT proliferation assay, DU-145; format: cell-based, human; conditions: FIG. 1C
# Description: as §1, §2, §3, §4
IC50 [1] [nM],IC50 values (range in words) [2],IC50 values (range in words) [3],IC50 values (range in words) [4],Compound,potency compared with VMD in the same cell lines (human tumor cell lines)
330,,,,O=C(O)c1ccc(N2CCN(CCCn3c4c(n[n+]3[O-])C(=O)c3ccccc3C4=O)CC2)cc1 [Compound 101],
,high μM range,high μM range,high μM range,CN(C)CC[C@H](CSc1ccccc1)Nc1ccc(S(=O)(=O)NC(=O)c2ccc(N3CCN(Cc4ccccc4-c4ccc(Cl)cc4)CC3)cc2)cc1[N+](=O)[O-] [Abt-737],at least two-order of magnitude less potent
